Measurements reported in patent publication US20240082234A1, “APPLICATION OF CILOSTAZOL-CONTAINING COMPOSITION IN PREPARING DRUG FOR TREATING CEREBROVASCULAR DISEASE” (NEURODAWN PHARMACEUTICAL CO., LTD., priority 2021, published 2024).

Columns and labels:
[1] = tested on: rats with focal cerebral ischemia-reperfusion injury; experiment: rat focal cerebral ischemia-reperfusion model (internal carotid artery suture method), area of cerebral infarction by TTC staining; format: in vivo, Sprague-Dawley (SD) rats; details: for Area of cerebral infarction (%): single i.v. dose after reperfusion, 24 h after ischemia, (+)-2-borneol 1 mg/kg; for area of cerebral infarction of MCAO rats (in words) / neurological deficits of MCAO rats (in words): summary, tail vein, cilostazol 1-18 mg/kg, (+)-2-borneol 0.27-5 mg/kg
Procedure: After the cerebral ischemia model was established, the animals were assigned to each group in a single-blind manner with equal probability. After reperfusion, the animals were immediately administered intravenously with the drugs once. The animals in the model group were administered with an equal volume of normal saline. The animals were sacrificed 24 hours after cerebral ischemia, and their brains were taken out, stained, and photographed for determining the area of cerebral infarction. The rat focal cerebral ischemia-reperfusion model was established by internal carotid artery suture method. The limbs (hind limbs above the knee joint and forelimbs below the wrist joint) and head of an anesthetized rat were tightened with rubber bands. The animal was fixed on an operating table in supine position, and was shaved with an animal shaver from the head to the chest, and the skin was disinfected with alcohol. The neck of the rat was cut at the midline, and the subcutaneous tissue was bluntly separated. The thin layer of fascia on the surface of the anterior triangle of the neck was separated, the lower side-lower edge of the clavicular hyoid muscle was pulled up, and the longitudinally pulsating artery parallel to this muscle can be seen. The arterial shell was opened, and the bifurcation of the right carotid artery was exposed. The right common carotid artery, external carotid artery and internal carotid artery were separated. The vagus nerve was gently stripped, and the external carotid artery was ligated and cut. The proximal end of the common carotid artery was clamped. An incision was made at the distal end from the ligature of the external carotid artery, and was inserted with a suture line, which was passed through the bifurcation of the common carotid artery into the internal carotid artery, and then was inserted slowly until reaching slight resistance (approximately 20 mm from the bifurcation), so as to block all blood supply to the middle cerebral artery. The suture line was slightly fixed below the incision of the external carotid artery with silk thread. The silk thread clamping the proximal end of the common carotid artery was loosened. A gauze soaked in sterile saline was covered on the wound, and the rat was placed on a heat preservation pad to keep warm. 2.0 h after cerebral ischemia on the right side, the suture line was pulled out gently to restore the blood supply for reperfusion. The external carotid artery was ligated with silk thread fixing the suture line. The skin was stitched, and disinfected. The rats were placed in clean feed, and their general condition and respiration were observed until they woke up from anesthesia. The rats were provided with food and water, and commonly reared. The animals were subjected to evaluation of neurological deficit symptoms and then sacrificed with CO2. The brain was taken out by cutting off head. The olfactory bulb, cerebellum and lower brainstem were removed. The blood on the surface of the brain was washed with normal saline, and the residual water on the surface was removed. The brain was placed at -20° C. for 20 min, then taken out, immediately cut to a coronal section vertically downward at the crossing plane of the line of sight, and sliced backward every 2 mm. The brain slices were incubated in 1% TTC staining solution (at 37° C. for 30 min). The normal brain tissue was stained into dark red, and the ischemic brain tissue was stained into pale white. After being washed with normal saline, the brain slices were quickly arranged in a row from front to back, removed off the residual water on the surface, and photographed. Calculation of area of cerebral infarction: The photos were processed by Image J software, and the corresponding area of left brain and non-infarction area of right brain were calculated according to the formula, so that the percentage of the area of infarction was calculated. […]

[2] = tested on: mice with focal cerebral ischemia-reperfusion injury; experiment: mouse focal cerebral ischemia-reperfusion model (internal carotid artery suture method), area of cerebral infarction by TTC staining; format: in vivo, C57BL/6J mice; details: summary; intravenous; cilostazol 10-19.46 mg/kg, (+)-2-borneol 0.54-10 mg/kg
Procedure: The animals were subjected to evaluation of neurological deficit symptoms and then sacrificed with CO2. The brain was taken out by cutting off head. The olfactory bulb, cerebellum and lower brainstem were removed. The blood on the surface of the brain was washed with normal saline, and the residual water on the surface was removed. The brain was placed at −20° C. for 20 min, then taken out, immediately cut to a coronal section vertically downward at the crossing plane of the line of sight, and sliced backward every 2 mm. The brain slices were incubated in 1% TTC staining solution (at 37° C. for 30 min). The normal brain tissue was stained into dark red, and the ischemic brain tissue was stained into pale white. After being washed with normal saline, the brain slices were quickly arranged in a row from front to back, removed off the residual water on the surface, and photographed. Calculation of area of cerebral infarction: The photos were processed by Image J software, and the corresponding area of left brain and non-infarction area of right brain were calculated according to the formula, so that the percentage of the area of infarction was calculated. The experimental animals were divided into 4 groups, a model group and three groups of compositions of cilostazol/(+)-2-borneol (respectively a group of cilostazol 10 mg/kg+(+)-2-borneol 10 mg/kg in 1:1: a group of cilostazol 15 mg/kg+(+)-2-borneol 5 mg/kg in 3:1; a group of cilostazol 18 mg/kg+(+)-2-borneol 2 mg/kg in 9:1, and each composition was administered at a total amount of 20 mg/kg). After the cerebral ischemia model was established, the animals were assigned to each group in a single-blind manner with equal probability. After reperfusion, the animals were immediately administered intravenously with the drugs once. The animals in the model group were administered with an equal volume of normal saline. The animals were sacrificed 24 hours after cerebral ischemia, and their brains were taken out, stained, and photographed for determining the area of cerebral infarction. Establishment of focal cerebral ischemia-reperfusion model: The mouse focal cerebral ischemia-reperfusion model was established by internal carotid artery suture method. An anesthetized mouse was fixed on an operating table in a supine position. The neck of the mice was cut at the midline, and the subcutaneous tissue was bluntly separated. The right common carotid artery, external carotid artery, and internal carotid artery were separated. […]

[3] = tested on: plasma protein; details: background statement; cited from earlier work
[4] = Example 1, cilostazol 1 mg/kg (p=0.06), (+)-2-borneol 1 mg/kg (p<0.01), composition 1+1 mg/kg (p<0.001), vs model group
[5] = Example 1, cilostazol 1 mg/kg, composition 2 mg/kg (1+1), model group 39.73 ± 7.62
[6] = Example 2, cilostazol 9 mg/kg (p=0.024), (+)-2-borneol 1 mg/kg (p=0.017), composition 9+1 mg/kg (p=0.000)
[7] = Example 2, cilostazol 9 mg/kg, composition 10 mg/kg (9+1), model group 38.25 ± 7.87
[8] = Example 3, cilostazol 18 mg/kg (p=0.001), (+)-2-borneol 1 mg/kg (p=0.002), composition 18+1 mg/kg (p=0.000)
[9] = Example 3, cilostazol 18 mg/kg, composition 19 mg/kg (18+1), model group 40.32 ± 7.65

Row | Structure (SMILES) | effect on the area of cerebral infarction (in words) [1, 4] | Area of cerebral infarction (%) [1, 5] | effect on the area of cerebral infarction (in words) [1, 6] | Area of cerebral infarction (%) [1, 7] | effect on the area of cerebral infarction (in words) [1, 8] | Area of cerebral infarction (%) [1, 9] | area of cerebral infarction of MCAO rats (in words) [1] | neurological deficits of MCAO rats (in words) [1] | area of cerebral infarction in MCAO mice (in words) [2] | neurological deficits in MCAO mice (in words) [2] | binding rate to plasma protein [3]
1 | CC1(C)C2CCC1(C)C(O)C2 (single isomer, unassigned; (+)) [(+)-2-Borneol] | significantly reduce the area of cerebral infarction | 28.28 ± 8.06 % | significantly reduce the area of cerebral infarction | 28.62 ± 9.87 % | significantly reduce the area of cerebral infarction | 29.97 ± 7.02 % | reduce the area of cerebral infarction | significantly ameliorate the neurological deficits | reduce the area of cerebral infarction | significantly ameliorate the neurological deficits | 
2 | O=C1CCc2cc(OCCCCc3nnnn3C3CCCCC3)ccc2N1 [Cilostazol] | tended to alleviate cerebral ischemic injury, but showed no statistical difference | 33.78 ± 5.74% | significantly reduce the area of cerebral infarction | 30.00 ± 8.43 % | significantly reduce the area of cerebral infarction | 27.84 ± 7.50 % | reduce the area of cerebral infarction | significantly ameliorate the neurological deficits | reduce the area of cerebral infarction | significantly ameliorate the neurological deficits | about 95%
